Measured values from patent US10292997B2, “Compositions and methods for stimulating wound healing” (priority 2011, dated 2019).

Test system: full thickness skin wounds
Experiment: Wound closure rate of excised full thickness skin wounds treated with gel formulations
Type: in vivo, Hartley-derived albino guinea pigs

Insulin: Insulin alone as control; non-steroidal anabolic hormone, vehicle not stated in the table
Peak Closure Day (day of maximum closure rate): 3.0 days
Closure % (day) 50% (day on which 50% wound closure is reached, gel about 1 cc/cm^2, dressing changed every 48 hours): 5.0 days
% Closure at Peak Closure Day (wound closure reached on the peak closure day): 30%
